According to US9296722B2, “Azolyl urea compounds and methods of use thereof” (Ambit Biosciences Corporation, priority 2010, dated 2016):
pIC50, pKd: −log10 of the molar value.

Legend:
[1] = target: kinase panel containing either 359 or 386 distinct kinases; experiment: Competition binding assay, selectivity score (S10) against a panel of kinases; conditions: compounds at 10 μM; fraction of kinases with percent of control less than 10
Procedure: Competition binding assays used herein were developed, validated and performed as described in Fabian et al., Nature Biotechnology 2005, 23, 329-336. Kinases were produced as fusions to T7 phage (See, Fabian et al. or WO04/015142) or alternatively, the kinases were expressed in HEK-293 cells and subsequently tagged with DNA for PCR detection (See, WO08/005,310). […] The liganded beads were blocked with excess biotin and washed with blocking buffer (SeaBlock (Pierce), 1% BSA, 0.05% Tween 20, 1 mM DTT) to remove unbound ligand and to reduce non-specific binding. […] Test compounds were prepared as 100× stocks in DMSO and diluted into the aqueous environment. Kds were determined using an eleven point threefold serial dilutions. DMSO or control compounds were was added to control assays lacking a test compound. Primary screen assays were performed in polypropylene 384-well plates in a final volume of 20-40 μL, while Kd determinations were performed in polystyrene 96-well plates in a final volume of […]. […] The kinase concentration in the eluates was measured by quantitative PCR.
A selectivity score (S10) is a quantitative measure of selectivity of a compound against a panel of kinases. An S10 was calculated for a compound by dividing the number of kinases found to have a percent of control (DMSO) less than 10 by the total number of distinct kinases tested (excluding mutant variants). Percent of control (POC) is calculated by subtracting the signal of the control compound
(POC=0) from the signal of the test compound and dividing the outcome by the signal of DMSO (POC=100) minus the signal of the control compound. For the compounds disclosed herein, S10 scores were obtained by testing the compounds at 10 μM concentration in a kinase panel containing either 359 or 386 distinct kinases.

CSF1R (human) = target: T1, CSF1R (human) (Homo sapiens, UniProt P07333); experiment: Competition binding assay, CSF1R (human) Kd
T1 construct: made in house; host or cells: T7 phage display or HEK-293 cells (alternatives, not resolved per kinase)
T1 sequence (P07333 20-972): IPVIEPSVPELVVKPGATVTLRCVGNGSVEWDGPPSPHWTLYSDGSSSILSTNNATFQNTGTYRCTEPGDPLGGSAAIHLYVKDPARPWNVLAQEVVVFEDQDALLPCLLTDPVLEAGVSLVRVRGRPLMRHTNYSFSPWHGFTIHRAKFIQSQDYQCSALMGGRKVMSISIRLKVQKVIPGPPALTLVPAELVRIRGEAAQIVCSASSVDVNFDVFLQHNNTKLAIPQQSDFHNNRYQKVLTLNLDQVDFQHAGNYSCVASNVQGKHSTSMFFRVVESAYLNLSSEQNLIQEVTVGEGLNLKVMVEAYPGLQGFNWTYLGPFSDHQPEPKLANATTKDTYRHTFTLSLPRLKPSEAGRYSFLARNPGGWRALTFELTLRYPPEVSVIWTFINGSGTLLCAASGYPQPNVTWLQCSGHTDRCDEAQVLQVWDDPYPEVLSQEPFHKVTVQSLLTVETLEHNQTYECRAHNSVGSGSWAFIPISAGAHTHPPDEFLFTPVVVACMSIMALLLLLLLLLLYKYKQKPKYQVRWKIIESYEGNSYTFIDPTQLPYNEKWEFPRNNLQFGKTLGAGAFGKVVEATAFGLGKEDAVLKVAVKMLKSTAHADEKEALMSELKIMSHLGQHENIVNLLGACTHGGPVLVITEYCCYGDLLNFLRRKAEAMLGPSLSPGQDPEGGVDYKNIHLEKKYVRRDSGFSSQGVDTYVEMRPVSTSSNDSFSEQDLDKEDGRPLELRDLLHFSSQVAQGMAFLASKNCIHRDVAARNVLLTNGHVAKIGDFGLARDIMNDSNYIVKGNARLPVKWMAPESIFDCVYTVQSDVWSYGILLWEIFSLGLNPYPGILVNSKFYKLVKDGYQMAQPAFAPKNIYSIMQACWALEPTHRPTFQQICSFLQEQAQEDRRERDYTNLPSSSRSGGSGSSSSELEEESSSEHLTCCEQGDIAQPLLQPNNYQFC
Procedure: The liganded beads were blocked with excess biotin and washed with blocking buffer (SeaBlock (Pierce), 1% BSA, 0.05% Tween 20, 1 mM DTT) to remove unbound ligand and to reduce non-specific binding. […] Test compounds were prepared as 100× stocks in DMSO and diluted into the aqueous environment. Kds were determined using an eleven point threefold serial dilutions. DMSO or control compounds were was added to control assays lacking a test compound. […] The kinase concentration in the eluates was measured by quantitative PCR.

M-NFS-60 cells = experiment: M-NFS-60 cell proliferation assay; format: cell-based, mouse; conditions: Mus musculus; 72 hours incubation, Alamar Blue, M-CSF-dependent cells; read-out: CSF1R Cell Proliferation (M-NFS-60) IC50
Procedure: In certain embodiments, the compounds disclosed herein are tested in an M-NFS-60 cell proliferation assay to determine their cellular potency against CSF-1R. M-NFS-60s are mouse monocytic cells that depend on the binding of the ligand M-CSF to its receptor, CSF-1R, to proliferate Inhibition of CSF-1R kinase activity will cause reduced growth and/or cell death. This assay assesses the potency of compounds as CSF-1R inhibitors by measuring the reduction of Alamar Blue reagent by viable cells. An exemplary assay is described in the Examples section.
The compounds disclosed herein were tested in an M-NFS-60 cell proliferation assay to determine their cellular potency against CSF1R. M-NFS-60s are mouse monocytic cells that depend on the binding of the ligand M-CSF to its receptor, CSF1R, to proliferate Inhibition of CSF1R kinase activity will cause reduced growth and/or cell death. This assay assesses the potency of compounds as CSF1R inhibitors by measuring the reduction of Alamar Blue reagent by viable cells.
On day one of the experiment, M-NFS-60 cells were maintained in RPMI complete medium (Omega Scientific) plus 10% FBS supplemented with 20 ng/mL of M-CSF (R&D Systems). 96-well TC-treated, flat bottom plates were seeded at 10,000 cell/well at a volume of 100 μL per well. The cells were cultured overnight at 37° C. under 5% CO2.
On day two, compounds were added to the cells at 9 different concentrations, with half-log intervals alongside a control reference compound serving as a positive control. Final DMSO concentration was kept at 0.5% for a final volume of 200 μL. The compounds were allowed to incubate with the cells for 72 hours at 37° C. under 5% CO2.
On day five of the experiment, 40 μl of Alamar Blue reagent was added to each well and allowed to incubate for 3 hours. Alamar Blue fluorescence was read using SoftMax Pro software at 560 nm (excitation) and 590 nm (emission). IC50s were generated as an average of duplicates and represents the concentration of test compound that achieves 50% inhibition of cellular proliferation compared to control.

| SMILES | Kinase Specificity (S10) [1] | pKd (CSF1R (human)) | pIC50 (M-NFS-60 cells) |
| --- | --- | --- | --- |
| CC(C)(C)c1cc(NC(=O)Nc2ccc(NC(=O)c3ccc(OC4CCN(C(C)(C)C)CC4)cn3)cc2)no1 | B (0.03 < B ≦ 0.05) | – | – |
| CN1C(COc2ccc(C(=O)Nc3ccc(NC(=O)Nc4cc(C(C)(C)C)on4)cc3)nc2)CCC1(C)C (stereo not shown) | B (0.03 < B ≦ 0.05) | 8.00 to 8.52 | ≥ 7.00 |
| CCN1CCC(Oc2ccnc(C(=O)Nc3ccc(NC(=O)Nc4cc(C(C)(C)C)on4)cc3)c2)CC1 | B (0.03 < B ≦ 0.05) | – | – |
| CC(C)(C)c1cc(NC(=O)Nc2ccc(NC(=O)c3ccc(OC4CCN(CC(F)(F)F)CC4)cn3)cc2)no1 | A (A ≦ 0.03) | – | – |
| CC(C)(C)c1cc(NC(=O)Nc2ccc(NC(=O)c3cc(OC4CCNCC4)ccn3)cc2)no1 | B (0.03 < B ≦ 0.05) | – | – |
| CC(C)(C)c1cc(NC(=O)Nc2ccc(NC(=O)c3ccc(OC4CCN(C5CC5)CC4)cn3)cc2)no1 | A (A ≦ 0.03) | – | – |
| CCN1CCC(Oc2ccc(C(=O)Nc3ccc(NC(=O)Nc4cc(C(C)(C)C)on4)cc3)nc2)CC1 | C (C > 0.05) | – | – |
| CN1C(C)(C)CC(Oc2ccc(C(=O)Nc3ccc(NC(=O)Nc4cc(C(C)(C)F)no4)cc3)nc2)CC1(C)C | A (A ≦ 0.03) | > 8.52 | ≥ 7.00 |
| CC(C)(C)c1cc(NC(=O)Nc2ccc(NC(=O)c3ccc(OC4CCN(C5COC5)C4)cn3)cc2)no1 (stereo not shown) | B (0.03 < B ≦ 0.05) | > 8.52 | ≥ 7.00 |
| CC(C)(C)c1cc(NC(=O)Nc2ccc(NC(=O)c3ccc(OC[C@H]4CCCN5CCCC[C@@H]45)cn3)cc2)no1 | C (C > 0.05) | > 8.52 | ≥ 7.00 |
| CC(C)N1CCC(Oc2ccc(C(=O)Nc3ccc(NC(=O)Nc4cc(C(C)(C)C)no4)cc3)nc2)CC1 | B (0.03 < B ≦ 0.05) | 8.00 to 8.52 | ≥ 7.00 |
| CN1CCN(Cc2ccc(C(=O)Nc3ccc(NC(=O)Nc4cc(C(C)(C)C)on4)cc3)nc2)CC1 | A (A ≦ 0.03) | – | – |
| CC(C)N1CCC(Oc2ccc(C(=O)Nc3ccc(NC(=O)Nc4cc(C(C)(C)C)on4)cc3)nc2)CC1 | B (0.03 < B ≦ 0.05) | – | – |
| CN1C(C)(C)CC(Oc2ccc(C(=O)Nc3ccc(NC(=O)Nc4cc(C(C)(C)C)on4)cc3)nc2)CC1(C)C | C (C > 0.05) | – | – |
| CCN1CCC(c2ccc(C(=O)Nc3ccc(NC(=O)Nc4cc(C(C)(C)C)on4)cc3)nc2)CC1 | B (0.03 < B ≦ 0.05) | – | – |
| Cc1cc(NC(=O)Nc2cc(C(C)(C)C)on2)ccc1NC(=O)c1ccc(OC2CC(C)(C)N(C)C(C)(C)C2)cn1 | C (C > 0.05) | 8.00 to 8.52 | < 6.00 |
| CCN1CCC(Oc2ccc(C(=O)Nc3ccc(NC(=O)Nc4cc(C(C)(C)C)on4)cc3)nc2)C1 (stereo not shown) | B (0.03 < B ≦ 0.05) | > 8.52 | ≥ 7.00 |
| CCN1CCC(Cc2ccc(C(=O)Nc3ccc(NC(=O)Nc4cc(C(C)(C)C)on4)cc3)nc2)CC1 | B (0.03 < B ≦ 0.05) | – | – |
| CC1(C)CC(Oc2ccc(C(=O)Nc3ccc(NC(=O)Nc4cc(C(C)(C)C)on4)cc3)nc2)CC(C)(C)N1 | C (C > 0.05) | – | – |
| CC(C)(C)c1cc(NC(=O)Nc2ccc(NC(=O)c3ccc(OC4CCNCC4)cn3)cc2)no1 | C (C > 0.05) | – | – |

Continued, in another order:

| Kinase Specificity (S10) [1] | pKd (CSF1R (human)) | SMILES | pIC50 (M-NFS-60 cells) |
| --- | --- | --- | --- |
| C (C > 0.05) | > 8.52 | CC(C)N1CC[C@@H](COc2ccc(C(=O)Nc3ccc(NC(=O)Nc4cc(C(C)(C)C)on4)cc3)nc2)C1 | ≥ 7.00 |
| C (C > 0.05) | > 8.52 | CC(C)N1CCC(Oc2ccc(C(=O)Nc3ccc(NC(=O)Nc4cc(C(C)(C)C(F)(F)F)on4)cc3)nc2)CC1 | ≥ 7.00 |
| A (A ≦ 0.03) | > 8.52 | CN1C(C)(C)CC(=O)C(c2ccc(C(=O)Nc3ccc(NC(=O)Nc4cc(C(C)(C)C)on4)cc3)nc2)C1(C)C (stereo not shown) | 6.60 to 7.00 |
| B (0.03 < B ≦ 0.05) | > 8.52 | CC(C)N1CCC(Oc2ccc(C(=O)Nc3ccc(NC(=O)Nc4cc(C(C)(C)C)on4)cc3)nc2)C1 (stereo not shown) | ≥ 7.00 |
| C (C > 0.05) | > 8.52 | CC(C)N1CC[C@@H](Oc2ccc(C(=O)Nc3ccc(NC(=O)Nc4cc(C(C)(C)C)on4)cc3)nc2)C1 | ≥ 7.00 |
| B (0.03 < B ≦ 0.05) | 8.00 to 8.52 | CN1C(C)(C)CC(Oc2ccc(C(=O)Nc3ccc(NC(=O)Nc4cc(C(C)(C)C)nn4C)cc3)nc2)CC1(C)C | 6.60 to 7.00 |
| C (C > 0.05) | < 8.00 | CCN1CC[C@@H](COc2ccc(C(=O)Nc3ccc(NC(=O)Nc4cc(C(C)(C)C)on4)cc3)nc2)C1 | ≥ 7.00 |
| C (C > 0.05) | < 8.00 | CN1C(C)(C)CC(Oc2ccc(C(=O)Nc3cccc(CNC(=O)Nc4cc(C(C)(C)C)on4)c3)nc2)CC1(C)C | < 6.00 |
| A (A ≦ 0.03) | > 8.52 | CCN1C(C)(C)CC(Oc2ccc(C(=O)Nc3ccc(NC(=O)Nc4cc(C(C)(C)C)on4)cc3)nc2)CC1(C)C | ≥ 7.00 |
| C (C > 0.05) | > 8.52 | CC(C)(C)c1cc(NC(=O)Nc2ccc(NC(=O)c3ccc(OC4CN(C5COC5)C4)cn3)cc2)no1 | ≥ 7.00 |
| B (0.03 < B ≦ 0.05) | > 8.52 | CC(C)N1CC(Oc2ccc(C(=O)Nc3ccc(NC(=O)Nc4cc(C(C)(C)C)on4)cc3)nc2)C1 | ≥ 7.00 |
| B (0.03 < B ≦ 0.05) | 8.00 to 8.52 | CN1C(C)(C)CC(Oc2ccc(C(=O)Nc3ccc(NC(=O)Nc4cc(C(C)(C)C(F)(F)F)on4)cc3)nc2)CC1(C)C | ≥ 7.00 |
| B (0.03 < B ≦ 0.05) | 8.00 to 8.52 | CN1C(C)(C)CC(Oc2ccc(C(=O)Nc3ccc(NC(=O)Nc4cc(C(C)(C)C)no4)cc3)nc2)CC1(C)C | ≥ 7.00 |
| C (C > 0.05) | > 8.52 | CC(C)N1CCC(Oc2ccc(C(=O)Nc3ccc(N(C)C(=O)Nc4cc(C(C)(C)C)on4)cc3)nc2)C1 (stereo not shown) | 6.60 to 7.00 |
| A (A ≦ 0.03) | 8.00 to 8.52 | COc1cc(NC(=O)c2ccc(OC3CC(C)(C)N(C)C(C)(C)C3)cn2)ccc1NC(=O)Nc1cc(C(C)(C)C)on1 | < 6.00 |
| C (C > 0.05) | > 8.52 | CC(C)(C)c1cc(NC(=O)Nc2ccc(NC(=O)c3ccc(OC4CCN(CCS(C)(=O)=O)C4)cn3)cc2)no1 (stereo not shown) | ≥ 7.00 |
| B (0.03 < B ≦ 0.05) | 8.00 to 8.52 | CN1C(C)(C)CC(Oc2cnc(C(=O)Nc3ccc(NC(=O)Nc4cc(C(C)(C)C)on4)cc3)cn2)CC1(C)C | 6.60 to 7.00 |
| C (C > 0.05) | > 8.52 | CC(C)N1CC[C@H](Oc2ccc(C(=O)Nc3ccc(NC(=O)Nc4cc(C(C)(C)C)on4)cc3)nc2)C1 | ≥ 7.00 |
